Source: patent US20150258139A1, “METHODS FOR TREATMENT OF CANCER USING LIPOPLATIN” (REGULON, INC., priority 2012, published 2015)
Where “and” joins values, the source holds several entries; their conditions need not be identical. Equal entries are not always repeated. Where two headings read alike, the source gives them in different places.

Key:
F98 glioma tumor [1] = test system: F98 glioma tumor
F98 glioma tumor [2] = experiment: Mean survival time of F98 glioma bearing Fischer rats, platinum drugs combined with Gamma Knife irradiation; format: in vivo
F98 glioma tumor [3] = format: in vivo; conditions: drug alone
[4] = test system: metastatic colorectal cancer; conditions: cited from earlier work
pancreatic cancer = conditions: gemcitabine alone; cited from earlier work
[5] = test system: Nonmetastatic Castrate-Resistant Prostate Cancer; conditions: monotherapy (Ogita et al); cited from earlier work
[6] = IA + BBBD, 24 h after administration, ± SD
[7] = IA + BBBD, 24 h after administration, ± SD, listed as carboplatin
[8] = IA, 24 h after administration, ± SD
[9] = IA, 24 h after administration, ± SD, listed as carboplatin
[10] = IV, 24 h after administration, ± SD

For `N.N.O=C([O-])C1(C(=O)[O-])CCC1.[Pt+2]` [Carboplatin], the “increase of accumulation in cytoplasm of tumor cells by opening of the BBB” value (F98 glioma tumor [1]; IA + BBBD vs IA) was 4.7 fold, the “increase of accumulation in nucleus of tumor cells by opening of the BBB” value (F98 glioma tumor [1]; IA + BBBD vs IA) was 18 fold and the “Platinum in brain tumor” value (F98 glioma tumor [1]; [6]) was 987 ± 621 ng of platin/g tissue. For the same compound, the “Platinum in cytoplasm of tumor cells” value (F98 glioma tumor [1]; [6]) was 398 ± 191 ng of platin/g tissue, the “Platinum in healthy contra lateral brain” value (F98 glioma tumor [1]; [6]) was 242 ± 59 ng of platin/g tissue and the “Platinum in nucleus of tumor cells” value (F98 glioma tumor [1]; [6]) was 160 ± 85 ng of platin/g tissue. The “Platinum in cytoplasm of tumor cells” value (F98 glioma tumor [1]; [7]) was 398±191 ng of platin/g tissue, the “Platinum in nucleus of tumor cells” value (F98 glioma tumor [1]; [7]) was 160±85 ng of platin/g tissue and the “effect of the IA route on tumor uptake and specificity” value (F98 glioma tumor [1]; IA vs IV, tumor vs contra lateral brain) was “improved both the tumor uptake and specificity”. The “Platinum in brain tumor” value (F98 glioma tumor [1]; [8]) was 469 ± 241 ng of platin/g tissue, the “Platinum in cytoplasm of tumor cells” value (F98 glioma tumor [1]; [8]) was 84 ± 61 ng of platin/g tissue and the “Platinum in healthy contra lateral brain” value (F98 glioma tumor [1]; [8]) was 70 ± 48 ng of platin/g tissue. The “Platinum in nucleus of tumor cells” value (F98 glioma tumor [1]; [8]) was 9 ± 7 ng of platin/g tissue, the “Platinum in cytoplasm of tumor cells” value (F98 glioma tumor [1]; [9]) was 84±61 ng of platin/g tissue and the “Platinum in nucleus of tumor cells” value (F98 glioma tumor [1]; [9]) was 9±7 ng of platin/g tissue. For the same compound, the “uptake in the nucleus of cancer cells” value (F98 glioma tumor [1]; IV route) was ~4 ng platinum/g tissue, the “Platinum in brain tumor” value (F98 glioma tumor [1]; [10]) was 145 ± 27 ng of platin/g tissue and the “Platinum in cytoplasm of tumor cells” value (F98 glioma tumor [1]; [10]) was 13 ± 4 ng of platin/g tissue. For the same compound, the “Platinum in healthy contra lateral brain” value (F98 glioma tumor [1]; [10]) was 27 ± 2 ng of platin/g tissue, the “Platinum in nucleus of tumor cells” value (F98 glioma tumor [1]; [10]) was 0.5 ± 0.8 ng of platin/g tissue and the mean survival time (F98 glioma tumor [2]; IA + opening of BBB + radiation 15 Gy, sham group+IR 34.5±2.2 days) was 38.0 ± 6.4 days. For the same compound, the “increase of mean survival time compared to the sham IR group” value (F98 glioma tumor [2]; IA + radiation 15 Gy) was 10.7 days, the mean survival time (F98 glioma tumor [2]; IA + radiation 15 Gy, sham group+IR 34.0±6.1 days) was 44.7 ± 6.1 days and the mean survival time (F98 glioma tumor [3]; IA + opening BBB) was 33.7 ± 2.0 days. For the same compound, the mean survival time (F98 glioma tumor [3]; IA, sham group 22.5±0.6 days) was 31.0 ± 3.6 days and the mean survival time (F98 glioma tumor [3]; IV, sham group 22.6±1.2 days) was “did not significantly increase”.

For `N.N.[Cl][Pt][Cl]` [Cisplatin], the “Platinum in cytoplasm of tumor cells” value (F98 glioma tumor [1]; rat, in vivo, iv) was 251 ± 48 ng of platin/g tissue, the “Platinum in nucleus of tumor cells” value (F98 glioma tumor [1]; rat, in vivo, iv) was 67 ± 14 ng of platin/g tissue and the “uptake in the nucleus of cancer cells” value (F98 glioma tumor [1]; rat, in vivo, iv) was 67±14 ng platinum/g tissue. It also gave a mean survival time (F98 glioma tumor [3]; IA, sham group 22.5±0.6 days) of 13.3 ± 0.1 days and a mean survival time (F98 glioma tumor [3]; IV, sham group 22.6±1.2 days) of 18.1 ± 0.9 days.

With `O=C1[O][Pt]2([NH][C@@H]3CCCC[C@H]3[NH]2)[O]C1=O` [Oxaliplatin] the “uptake in the nucleus of cancer cells” value (F98 glioma tumor [1]; IV route) was 78±8 ng platinum/g tissue, the “Platinum in cytoplasm of tumor cells” value (F98 glioma tumor [1]; [10]) was 292 ± 128 ng of platin/g tissue and the “Platinum in nucleus of tumor cells” value (F98 glioma tumor [1]; [10]) was 78 ± 8 ng of platin/g tissue. For the same compound, the “objective responses, % of patients” value ([4]; 2 small trials of first-line monotherapy (Wiseman et al)) was 20% and 24%, the response rate ([4]; first line monotherapy, metastatic colorectal cancer patients) was 24% and the “objective responses, % of patients” value ([4]; monotherapy as second-line option (Wiseman et al)) was “about 10%”. For the same compound, the overall response rate ([4]; monotherapy, second line, colorectal cancer, Japanese study (Boku et al)) was 9%, the mean survival time (F98 glioma tumor [3]; IA, sham group 22.5±0.6 days) was 22.0 ± 4.7 days and the mean survival time (F98 glioma tumor [3]; IV, sham group 22.6±1.2 days) was “did not significantly increase”.

For `Nc1ccn([C@@H]2O[C@H](CO)[C@@H](O)C2(F)F)c(=O)n1` [gemcitabine], the one-year survival (pancreatic cancer) is listed as 17%.

For “Avastin®: humanized monoclonal antibody that binds to and inhibits human vascular endothelial growth factor (VEGF)”, the efficacy [5] is given as “marginal efficacy”.
